According to patent US5585382A, “Polycyclic and heterocyclic chromophores for bis-imide tumoricidals” (The DuPont Merck Pharmaceutical Company, priority 1995, dated 1996):
Where two headings read alike, the source gives them in different places.

Tests used:
[1] = tested on: Clone A human colon cancer cells; test: In vitro growth inhibition of Clone A cells (MTT, 72 hr); format: cell-based; details: read-out: Clone A IC50
How it was run: (§1)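 Cells seeded on day 0 (1×10^3 L1210 or 8×10^2 Clone A per well), graded compound concentrations added on day 1, then 72 hr at 37 °C. MTT 4 h, formazan dissolved in acidic isopropanol, read at 570/630 nm; IC50 from curve fit as half-maximal inhibition of population doublings, eight replicates.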

[2] = tested on: MX-1 human mammary carcinoma; test: In vivo human tumor xenograft MX-1 in nude mice; details: for Tumor Growth Inhibition activity against MX-1 (in words): NCI criteria
From the text: (§2) The DLD-2 human colon tumor and MX-1 human mammary carcinoma, were originally obtained from a surgically-removed primary colon carcinoma or breast tumor respectively. The human tumor lines were maintained by serial passage in athymic nude mice. The MX-1 human mammary carcinoma is an established tumor used by the NCI. The DLD-2 human colon tumor has been well characterized. (Dexter, D. L.; Spremulli, E. N.; Matook, G. M.; Diamond, I.; Calabresi, P. Cancer Research 1982, 42, 5010; Dexter, D. L.; Barbosa, J. A.; Calabresi, P. Cancer Research 1979, 39, 1020.)
(§3) The mice used in these experiments were outbred Swiss mice or CD-1 mice bearing the nude (nu/nu) gene. On Day 0, male and female mice weighing 22-30 g are inoculated with 0.2 mL of a 25% tumor mince. This mince is prepared by mincing fresh tumor tissue, grown subcutaneously in passage mice, in sterile physiological saline. Palpable tumors weighing approximately 50 mg appear in the mice within 7-10 days after inoculation. The mice are pair matched by tumor weight and sex into groups of ten each and the test compounds and vehicle control are administered intravenously (i.v.) once daily for nine consecutive days. A >20% decrease in body weight on Day 5 following compound administration is considered an indication of toxicity. Tumor measurements and body weights are recorded once a week. Fifteen to eighteen days after the initial injection the mice are weighed, sacrificed, and the tumors excised and weighed.
(§4) The efficacy of the test compounds is determined by the extent of tumor growth inhibition in treated versus vehicle-treated control mice. Initial tumor weights (mg) are calculated from the tumor dimensions (mm) obtained from caliper measurements, using the formula for a prolate ellipsoid (mg of tumor weight=(length×width^2)/2). Net tumor weights are calculated for each of the treated groups and the vehicle-treated control group by subtracting the initial tumor weight from the final tumor weight (Day 15-18). Results are expressed as a percentage decrease relative to the mean tumor weight for the control vehicle-treated group.
(§5) Tumor Growth Inhibition= [formula]
(§6) The evaluation criteria of the National Cancer Institute for activity in in vivo cancer models were used. Tumor growth inhibition of 58-89% against the various xenografts is considered moderate activity, and inhibition of ≥90% is considered good to excellent activity. Actual tumor regressions (IR=incomplete regression; FR=full regression) indicate excellent to outstanding activity.

[3] = tested on: DLD-2 human colon tumor; test: In vivo human tumor xenograft DLD-2 in nude mice; details: for Tumor Growth Inhibition activity against DLD-2 (in words): NCI criteria
From the text: as §2, §3, §4, §5, §6

[4] = tested on: Murine leukemia L1210 cells; test: In vitro growth inhibition of L1210 cells (MTT, 72 hr); format: cell-based; details: Mus musculus, read-out: L1210 IC50
How it was run: as §1

[5] = Solubility in water
[6] = Mus musculus, iv, 216 h, read-out: MX-1 percent tumor growth inhibition
[7] = Mus musculus, iv, 216 h, read-out: MX-1 tumor regressions, IR=incomplete regression
[8] = i.v. once daily for nine days, nude mice
[9] = Mus musculus, DLD2, iv, 216 h, read-out: DLD-2 percent tumor growth inhibition
[10] = Mus musculus, DLD2, iv, 216 h, 12.5 mg/kg, i.v. once daily for nine days, nude mice, read-out: DLD-2 percent tumor growth inhibition

Structure (SMILES)	IC50 ([1]; 72 h)	Tumor Growth Inhibition activity against MX-1 (in words) [2, 8]	IC50 ([4]; L1210, 72 h)	solubility [5]	Tumor Growth Inhibition activity against DLD-2 (in words) [3, 8]	IC50 ([1]; Clone A cells, 72 hr, MTT)	IC50 ([4]; L1210 cells, 72 hr, MTT)	other results
CS(=O)(=O)O.CS(=O)(=O)O.Cc1cnc2c(c1)cc1c3c(cc([N+](=O)[O-])cc32)C(=O)N([C@H](C)CNC[C@@H](C)NC[C@@H](C)N2C(=O)c3cc([N+](=O)[O-])cc4c3c(cc3cc(C)cnc34)C2=O)C1=O [Example 25, (R,R)-1,2-bis-[2-(3-Nitro-7-methyl-5-azaphenanthrene-1, 10dicarboximido)propylamino]-(R)-1-methylethane Dihydromethanesulfonate]	0.01 µg/mL	moderate to excellent	0.048 µg/mL	4820 µg/mL	–	–	–	MX-1 tumor regressions, FR=full regression ([2]; 25 mg/kg, i.v. once daily for nine days, nude mice): 1/8; inhibition in vivo at 25 mg/kg [2, 6]: 99%; responders at 25 mg/kg [2, 7]: 75%; inhibition in vivo at 25 mg/kg [3, 9]: 97%
CS(=O)(=O)O.O=C1c2cccc3cc([N+](=O)[O-])cc(c23)C(=O)N1CCCCNCCCN1C(=O)c2cc([N+](=O)[O-])cc3c2c(cc2ncccc23)C1=O [Example 115, 4-[3-(3-Nitro-8-azaphenanthrene-1,10-dicarboximido)propylamino]-1-(3-nitronaphthalene-1,8dicarboximido)butane Hydromethanesulfonate]	0.001 µg/mL	moderate to excellent	0.003 µg/mL	150 µg/mL	moderate to excellent	–	–	inhibition in vivo at 6 mg/kg [2, 6]: 95%; responders at 6 mg/kg [2, 7]: 12.5%; inhibition in vivo at 10 mg/kg [3, 9]: 90%
CS(=O)(=O)O.CS(=O)(=O)O.Nc1cc2c3c(cc4cccnc4c3c1)C(=O)N(CCCNCCCCN1C(=O)c3cccc4cc([N+](=O)[O-])cc(c34)C1=O)C2=O [Example 112, 4-[3-(3-Amino-5-azaphenanthrene-1,10-dicarboximido)propylamino]-1-(3-nitronaphthalene-1,8-dicarboximido)butane Dihydromethanesulfonate]	–	moderate to excellent	–	7500 µg/mL	–	0.007 µg/mL	0.02 µg/mL	inhibition in vivo at 25 mg/kg ([2]; Mus musculus, iv, 216 h, 25 mg/kg, i.v. once daily for nine days, nude mice, read-out: MX-1 percent tumor growth inhibition): 98%; responders at 25 mg/kg ([2]; Mus musculus, iv, 216 h, 25 mg/kg, i.v. once daily for nine days, nude mice, read-out: MX-1 tumor regressions, IR=incomplete regression (converted)): 37.5%; inhibition in vivo at 12.5 mg/kg [3, 10]: 48%
CS(=O)(=O)O.O=C1c2cccc3cc([N+](=O)[O-])cc(c23)C(=O)N1CCCCNCCCN1C(=O)c2cccc3c2c(cc2ncccc23)C1=O [Example 114, 4-[3-(8-Azaphenanthrene-1,10-dicarboximido)propylamino]-1-(3-nitronaphthalene-1,8-dicarboximido)butane Hydromethanesulfonate]	–	moderate to excellent	–	680 µg/mL	moderate to excellent	0.001 µg/mL	< 0.01 µg/mL	inhibition in vivo at 12 mg/kg ([2]; Mus musculus, iv, 216 h, 12 mg/kg, i.v. once daily for nine days, nude mice, read-out: MX-1 percent tumor growth inhibition): 98%; responders at 12 mg/kg ([2]; Mus musculus, iv, 216 h, 12 mg/kg, i.v. once daily for nine days, nude mice, read-out: MX-1 tumor regressions, IR=incomplete regression (converted)): 62.5%; DLD-2 tumor regressions, IR=incomplete regression ([3]; 12.5 mg/kg, i.v. once daily for nine days, nude mice): 4/8; inhibition in vivo at 12.5 mg/kg [3, 10]: 99%
CS(=O)(=O)O.O=C1c2cc([N+](=O)[O-])cc3c2c(cc2ncccc23)C(=O)N1CCCCNCCCN1C(=O)c2cc([N+](=O)[O-])cc3c2c(cc2ncccc23)C1=O [Example 18, 4-[3-(3-Nitro-8-azaphenanthrene-1,10-dicarboximido)propylamino]-1-(3-nitro-8-azaphenanthrene-1, 10-dicarboximido)butane Hydromethanesulfonate]	0.007 µg/mL	–	0.001 µg/mL	20 µg/mL	moderate to excellent	–	–	inhibition in vivo at 12.5 mg/kg [3, 9]: 84%
CS(=O)(=O)O.CS(=O)(=O)O.Cc1nc2cc3c4c(cccc4c2[nH]1)C(=O)N(CCCNCCCCN1C(=O)c2cccc4cc([N+](=O)[O-])cc(c24)C1=O)C3=O [Example 140, 4-[3-(2-Methyl-1H-naphth[1,2-d]imidazole-5,6-dicarboximido)propylamino]-1-(3-nitronaphthalene-1,8-dicarboximido)butane Dihydromethanesulfonate]	–	–	–	9000 µg/mL	–	0.101 µg/mL	0.425 µg/mL	inhibition in vivo at 50 mg/kg ([3]; Mus musculus, DLD2, iv, 216 h, 50 mg/kg, i.v. once daily for nine days, nude mice, read-out: DLD-2 percent tumor growth inhibition): 0%
CS(=O)(=O)O.O=C1c2cc([N+](=O)[O-])cc3c2c(cc2cccnc23)C(=O)N1CCCNCCCN1C(=O)c2cc([N+](=O)[O-])cc3c2c(cc2cccnc23)C1=O [Example 4, 3-[3-(3-Nitro-5-azaphenanthrene-1,10-dicarboximido)propylamino]-1-(3-nitro-5-azaphenanthrene-1, 10-dicarboximido)propane Hydromethanesulfonate]	0.005 µg/mL	–	0.011 µg/mL	450 µg/mL	–	–	–	inhibition in vivo at 10 mg/kg [3, 9]: 57%
CS(=O)(=O)O.O=C1c2cc([N+](=O)[O-])cc3c2c(cc2cccnc23)C(=O)N1CCCCNCCCN1C(=O)c2cc([N+](=O)[O-])cc3c2c(cc2cccnc23)C1=O [Example 5, 4-[3-(3-Nitro-5-azaphenanthrene-1, 10-dicarboximido)propylamino]-1-(3-nitro-5-azaphenanthrene-1, 10-dicarboximido)butane Hydromethanesulfonate]	0.013 µg/mL	–	0.006 µg/mL	60 µg/mL	moderate to excellent	–	–	inhibition in vivo at 10 mg/kg [3, 9]: 82%
O=C1c2cc([N+](=O)[O-])cc3c2c(cc2cccnc23)C(=O)N1CCNCCN1C(=O)c2cc([N+](=O)[O-])cc3c2c(cc2cccnc23)C1=O [Example 2, 2-[3-(3-Nitro-5-azaphenanthrene-1,10-dicarboximido)ethylamino]-1-(3-nitro-5-azaphenanthrene-1, 10-dicarboximido)ethane Hydromethanesulfonate]	–	–	–	10 µg/mL	–	0.044 µg/mL	0.02 µg/mL	inhibition in vivo at 12.5 mg/kg [3, 10]: 0%
CS(=O)(=O)O.O=C1c2cccc3c2c(cc2cccnc23)C(=O)N1CCCCNCCCN1C(=O)c2cccc3c2c(cc2cccnc23)C1=O [Example 1, 4-[3-(5-Azaphenanthrene-1,10-dicarboximido)propylamino]-1-(5-azaphenanthrene-1,10-dicarboximido) butane Hydromethanesulfonate]	–	–	–	2300 µg/mL	–	0.06 µg/mL	0.134 µg/mL	inhibition in vivo at 25 mg/kg ([3]; Mus musculus, DLD2, iv, 216 h, 25 mg/kg, i.v. once daily for nine days, nude mice, read-out: DLD-2 percent tumor growth inhibition): 16%
CS(=O)(=O)O.CS(=O)(=O)O.C[C@@H](CNCCNC[C@H](C)N1C(=O)c2cc([N+](=O)[O-])cc3c2c(cc2cccnc23)C1=O)N1C(=O)c2cc([N+](=O)[O-])cc3c2c(cc2cccnc23)C1=O [Example 7, (S,S)-1,2-bis-[2-(3-Nitro-5-azaphenanthrene-1,10-dicarboximido)propylamino]ethane Dihydromethanesulfonate]	0.028 µg/mL	–	0.048 µg/mL	680 µg/mL	moderate to excellent	–	–	inhibition in vivo at 12.5 mg/kg [3, 9]: 83%
